Experimental data: patent US8492537B2, “Nucleosides for suppressing or reducing the development of resistance in cytostatic therapy” (RESprotect GmbH, priority 2006, dated 2013)

| SMILES | melting point |
| --- | --- |
| CC(C)[C@H](NC(=O)OC(C)(C)C)C(=O)OC[C@H]1O[C@@H](n2cc(/C=C/Br)c(=O)[nH]c2=O)C[C@@H]1Cl [1.2.2.5, 5′-O—(N-t-butyloxycarbonyl-L-valinoyl)-3′-chloro-2′,3′-dideoxy-5-(E)-bromovinyluridine] | 75 to 76 °C |
| CC(C)[C@H](NC(=O)OC(C)(C)C)C(=O)N[C@H](C(=O)OC[C@H]1O[C@@H](n2cc(/C=C/Br)c(=O)[nH]c2=O)C[C@@H]1Cl)C(C)C [1.2.2.7, 5′-O—(N-t-butyloxycarbonyl-L-valyl-L-valinoyl)-3′-chloro-2′,3′-dideoxy-5-(E)-bromovinyluridine] | 102 to 103 °C |
| CC(C)[C@H](NC(=O)OC(C)(C)C)C(=O)N[C@H](C(=O)OC[C@H]1O[C@@H](n2cc(/C=C/Br)c(=O)[nH]c2=O)C[C@@H]1N=[N+]=[N-])C(C)C [1.2.2.9, 3′-azido-5′-O—(N-t-butyloxycarbonyl-L-valyl-L-valinoyl)-2′,3′-dideoxy-5-(E)-bromovinyluridine] | 95 to 97 °C |
| CC(=O)N[C@H]1C[C@H](n2cc(/C=C/Br)c(=O)[nH]c2=O)O[C@@H]1CBr [1.4.2, 3′-acetamido-5′-bromo-2′,3′,5′-trideoxy-5-(E)-bromovinyluridine] | 178 to 180 °C |
| O=c1[nH]c(=O)n([C@H]2C[C@H](O)[C@@H](CF)O2)cc1/C=C/Br [2.1.1, 2′,5′-dideoxy-5′-fluoro-5-(E)-bromovinyluridine] | 208 °C |
| CO[C@H]1C[C@H](n2cc(/C=C/Br)c(=O)[nH]c2=O)O[C@@H]1CCl [2.1.2, 3′-O-methyl-5′-chloro-2′,5′-dideoxy-5-(E)-bromovinyluridine] | 145 °C |
| CO[C@H]1C[C@H](n2cc(/C=C/Br)c(=O)n(C)c2=O)O[C@@H]1CF [2.1.3, 3′-O-methyl-5′-fluoro-2′,5′-dideoxy-3-methyl-5-(E)-bromovinyluridine] | 95 °C |
| CO[C@H]1C[C@H](n2cc(/C=C/Br)c(=O)[nH]c2=O)O[C@@H]1CF [2.1.4, 3′-O-methyl-5′-fluoro-2′,5′-dideoxy-5-(E)-bromovinyluridine] | 177 °C |
| CC(=O)O[C@H]1C[C@H](n2cc(/C=C/Br)c(=O)[nH]c2=O)O[C@@H]1C(O)F (stereo partly shown) [2.2.1, 3′-O-acetyl-5′-fluoro-2′-deoxy-5-(E)-bromovinyluridine] | 81 °C |
| CCCCOC(=O)N[C@H](C(=O)O[C@H]1C[C@H](n2cc(/C=C/Br)c(=O)[nH]c2=O)O[C@@H]1CCl)C(C)C [2.2.2.5, 3′-O—(N-4-butyloxycarbonyl-L-valinoyl)-5′-chloro-2′,5′-dideoxy-5-(E)-bromovinyluridine] | 87 to 88 °C |
| CC(C)[C@H](NC(=O)OC(C)(C)C)C(=O)N[C@H](C(=O)O[C@H]1C[C@H](n2cc(/C=C/Br)c(=O)[nH]c2=O)O[C@@H]1CCl)C(C)C [2.2.2.7, 3′-O—(N-t-butyloxycarbonyl-L-valyl-L-valinoyl)-5′-chloro-2′,5′-dideoxy-5-(E)-bromovinyluridine] | 114 to 116 °C |
| CC(C)[C@H](NC(=O)OC(C)(C)C)C(=O)N[C@H](C(=O)O[C@H]1C[C@H](n2cc(/C=C/Br)c(=O)[nH]c2=O)O[C@@H]1CN=[N+]=[N-])C(C)C [2.2.2.9, 5′-azido-3′-O—(N-t-butyloxycarbonyl-L-valyl-L-valinoyl)-2′,5′-dideoxy-5-(E)-bromovinyluridine] | 133 to 135 °C |
| O=c1[nH]c(=O)n([C@@H]2O[C@H](CBr)[C@@H](O)[C@H]2O)cc1/C=C/Br [2.3, 5′-bromo-5′-deoxy-5-(E)-bromovinyluridine] | 201 °C |
| O=c1[nH]c(=O)n([C@H]2C[C@H](F)[C@@H](CF)O2)cc1/C=C/Br [3.1, 3′,5′-difluoro-2′,3′,5′-trideoxy-5-(E)-bromovinyluridine] | 177 to 180 °C |
| O=c1[nH]c(=O)n([C@H]2C[C@H](F)[C@@H](CCl)O2)cc1/C=C/Br [3.2, 3′-fluoro-5′-chloro-2′,3′,5′-trideoxy-5-(E)-bromovinyluridine] | 203 °C |
| O=c1[nH]c(=O)n([C@H]2C[C@H](Cl)[C@@H](CCl)O2)cc1/C=C/Br [3.3, 3′,5′-dichloro-2′,3′,5′-trideoxy-5-(E)-bromovinyluridine] | 184 °C |
| O=c1[nH]c(=O)n([C@H]2C[C@H](Cl)[C@@H](CBr)O2)cc1/C=C/Br [3.5, 3′-chloro-5′-bromo-2′,3′,5′-trideoxy-5-(E)-bromovinyluridine] | 149 °C |
| [N-]=[N+]=NC[C@H]1O[C@@H](n2cc(/C=C/Br)c(=O)[nH]c2=O)C[C@@H]1Cl [3.5.3, 5′-azido-3′-chloro-2′,3′,5′-trideoxy-5-(E)-bromovinyluridine] | 58 to 60 °C |
| [N-]=[N+]=N[C@H]1C[C@H](n2cc(/C=C/Br)c(=O)[nH]c2=O)O[C@@H]1CCl [3.5.4, 3′-azido-5′-chloro-2′,3′,5′-trideoxy-5-(E)-bromovinyluridine] | 124 to 125 °C |
| O=c1[nH]c(=O)n([C@H]2C[C@H](Br)[C@@H](CBr)O2)cc1/C=C/Br [3.6, 3′,5′-dibromo-2′,3′,5′-trideoxy-5-(E)-bromovinyluridine] | 153 °C |
| O=c1[nH]c(=O)n([C@H]2C=C[C@@H](CO)O2)cc1/C=C/Br [4.1, 2′,3′-didehydro-2′,3′-dideoxy-5-(E)-bromovinyluridine] | > 250 °C (dec.) |
| O=c1[nH]c(=O)n([C@H]2C=C[C@@H](CBr)O2)cc1/C=C/Br [4.2, 2′,3′-didehydro-2′,3′,5′-trideoxy-5′-bromo-5-(E)-bromovinyluridine] | > 150 °C |
| O=c1[nH]c(=O)n([C@@H]2O[C@H](CO)[C@@H](O)[C@H]2F)cc1/C=C/Br [5.1, 2′-fluoro-2′-deoxy-5-(E)-bromovinyluridine] | 182 °C |
| O=c1[nH]c(=O)n([C@@H]2O[C@H](CBr)[C@@H](O)[C@H]2F)cc1/C=C/Br [5.2, 2′-fluoro-5′-bromo-2′,5′-dideoxy-5-(E)-bromovinyluridine] | 223 °C |
| C[C@H]1O[C@@H](n2cc(/C=C/Br)c(=O)[nH]c2=O)C[C@@H]1O [8.1, 2′,5′-dideoxy-5-(E)-bromovinyluridine] | 174 °C (dec.) |
| C[C@H]1O[C@@H](n2cc(/C=C/Br)c(=O)[nH]c2=O)C[C@@H]1Cl [8.2, 3′-chloro-2′,3′,5′-trideoxy-5-(E)-bromovinyluridine] | 134 °C |
| CC(=O)O[C@H]1C[C@H](n2cc(/C=C/Br)c(=O)[nH]c2=O)O[C@@H]1CC#N [10.3, 3′-O-acetyl-5′-cyano-2′,5′-dideoxy-5-(E)-bromovinyluridine] | 96 °C |
| N#CC[C@H]1O[C@@H](n2cc(/C=C/Br)c(=O)[nH]c2=O)C[C@@H]1O [compound 10, 5′-cyano-2′,5′-dideoxy-5-(E)-bromovinyluridine] | 177 °C (dec.) |
